Test results taken from BindingDB's records for doi:10.1124/mol.52.3.337 (The Schering Plough Research Institute, 1997).
Non-standard residues stand in square brackets, D forms with d. Residues, ends and D or L forms follow the SMILES beside them.

biological target: T1, Galanin receptor type 2 (Rattus norvegicus, UniProt O08726)
T1 sequence (O08726 whole entry): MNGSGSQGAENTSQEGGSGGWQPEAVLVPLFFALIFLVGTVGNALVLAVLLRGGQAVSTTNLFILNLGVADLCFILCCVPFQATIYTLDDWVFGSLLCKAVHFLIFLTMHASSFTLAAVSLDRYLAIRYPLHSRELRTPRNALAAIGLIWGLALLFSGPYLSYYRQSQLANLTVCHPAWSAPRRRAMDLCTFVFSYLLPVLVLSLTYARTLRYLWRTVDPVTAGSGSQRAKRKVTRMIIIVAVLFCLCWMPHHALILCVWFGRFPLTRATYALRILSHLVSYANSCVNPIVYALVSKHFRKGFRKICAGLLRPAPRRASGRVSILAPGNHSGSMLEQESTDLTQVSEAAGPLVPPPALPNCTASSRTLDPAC

Compound | Ki [µM]
CC(C)C[C@H](NC(=O)[C@H](CC(C)C)NC(=O)[C@@H](Cc1c[nH]c2ccccc12)NC(=O)[C@H](Cc1ccccc1)NC(=O)[C@@H](Cc1c[nH]c2ccccc12)NC(=O)[C@H](CCC(N)=O)NC(=O)[C@H](CCC(N)=O)NC(=O)[C@@H]1CCCN1C(=O)[C@H](CCCCN)NC(=O)[C@@H]1CCCN1C(=O)[C@@H](CCCNC(=N)N)NC(=O)[C@@H]1CCCN1C(=O)CNC(=O)[C@H](CC(C)C)NC(=O)[C@H](CC(C)C)NC(=O)[C@H](Cc1ccc(O)cc1)NC(=O)CNC(=O)[C@H](C)NC(=O)[C@H](CO)NC(=O)[C@H](CC(N)=O)NC(=O)[C@H](CC(C)C)NC(=O)[C@@H](NC(=O)[C@H](Cc1c[nH]c2ccccc12)NC(=O)CN)[C@@H](C)O)C(N)=O [Gal(1-13)-Std I] (H-GWTLNSAGYLLGP[dR]PKPQQ[dW]F[dW]LL-NH2) | 0.0091
H-ELEPEDEARPGGFDRLQSQDKAIRTIMEFLAFLHLKEAGAL-NH2 [GMAP (1-41)] | 0.84
H-GWTLNSAGYLLGPPPALALA-NH2 [M40] | 0.018
